# Assay results published in publication PMC12350126, “A novel carboxamide bromodomain inhibitor attenuates osteoarthritis via epigenetic repression of NF-κB and MAPK signaling” (Frontiers in Immunology, 2025).
# pKd: −log10 of the molar value.
# How the values were obtained:
# [1] = biological target: T1, BRD3 (BD1 + BD2) (Homo sapiens, UniProt Q15059); assay: TR-FRET assay, BRD3 (BD1 + BD2); details: lower signal = stronger binding
# T1 construct: BRD3 (BD1 + BD2); purchased BPS Bioscience
# Experimental: (§1) TR-FRET assays were conducted using kits specific for BRD2 (BD1 + BD2), BRD3 (BD1 + BD2), and BRD4 (BD1 + BD2) obtained from BPS Bioscience (San Diego, CA, USA). Bromodomain ligands were diluted in water, and master mixes were prepared by combining the diluted ligands with 1× BRD Homogeneous Assay Buffer. Thawed BRD proteins were also diluted with the same buffer. For each assay, 1.5 μL of the master mix was dispensed into wells of a microplate (Labcyte, San Jose, CA, USA), followed by the addition of 5 μL of diluted BRD protein to initiate the reaction. Plates were incubated at 20–22°C for 30–60 min. Subsequently, glutathione (GSH) acceptor beads and streptavidin-conjugated donor beads (both from PerkinElmer, Waltham, MA, USA) were diluted in 1× BRD Homogeneous Detection Buffer 1. Next, 10 μL of the acceptor bead solution was added to each well and incubated at 18°C for 30 min, followed by the addition of 10 μL of donor bead solution and a further incubation at 18°C for 15–30 min. Alpha particle counts were measured using an EnVision 2105 multimode plate reader (PerkinElmer).
# [2] = biological target: T2, BRD4 (BD1 + BD2) (Homo sapiens, UniProt O60885); assay: TR-FRET assay, BRD4 (BD1 + BD2); details: lower signal = stronger binding
# T2 construct: BRD4 (BD1 + BD2); purchased BPS Bioscience
# Experimental: as §1
# [3] = biological target: T3, BRD2 BD1 (Homo sapiens, UniProt P25440); assay: Biosensor binding kinetics assay (Octet), BRD2 BD1
# T3 construct: biotinylated BRD2 BD1; biotin (biotinylated protein); made in house; host or cells: Escherichia coli BL21(DE3)
# Experimental: (§2) Binding kinetics were assessed using the Octet® R2 system (Sartorius, Göttingen, Germany). Superstreptavidin biosensors were loaded with biotinylated BRD2 BD1, BRD2 BD2, BRD3 BD1, BRD3 BD2, BRD4 BD1, BRD4 BD2, or biotin alone (as a negative control) in PBST buffer (phosphate-buffered saline containing 0.02% Tween 20 and 5% DMSO). The sensors were then dipped into compound solutions for 10 min. To evaluate association kinetics (kon), each sensor was exposed to serial dilutions of the protein for 180 s, followed by dipping them into PBST buffer to assess dissociation kinetics (koff). For control, a separate sensor loaded with the compound was dipped into PBST alone. Competition binding assays were performed by exposing the compound-loaded sensor to mixtures of proteins and test compounds.
# [4] = biological target: T4, BRD2 BD2 (Homo sapiens, UniProt P25440); assay: Biosensor binding kinetics assay (Octet), BRD2 BD2
# T4 construct: biotinylated BRD2 BD1, BRD2 BD2; biotin (biotinylated protein); made in house; host or cells: Escherichia coli BL21(DE3)
# Experimental: as §2
# [5] = biological target: T5, BRD3 BD1 (Homo sapiens, UniProt Q15059); assay: Biosensor binding kinetics assay (Octet), BRD3 BD1
# T5 construct: biotinylated BRD2 BD1, BRD2 BD2, BRD3 BD1; biotin (biotinylated protein); made in house; host or cells: Escherichia coli BL21(DE3)
# Experimental: as §2
# [6] = biological target: T6, BRD4 BD2 (Homo sapiens, UniProt O60885); assay: Biosensor binding kinetics assay (Octet), BRD4 BD2
# T6 construct: BRD3 BD2, BRD4 BD1, BRD4 BD2; biotin (biotinylated protein); made in house; host or cells: Escherichia coli BL21(DE3)
# Experimental: as §2
# [7] = tested on: DMM-induced OA in C57BL/6J mice; assay: DMM-induced OA mouse model, oral administration; type: in vivo
# Experimental: All experiments were independently performed with at least three biological replicates to ensure reproducibility. For in vivo studies, animals were randomly assigned to treatment or control groups. To create a DMM-induced OA model, DMM surgery was performed on 12-week-old male C57BL/6J mice, following a previously reported protocol ([26]). Subsequently, NCD was either orally administered or injected in mice; the NCD (50 mg/kg) was orally administered on alternate days 4 weeks after DMM, whereas IA knee injection of NCD (10 μg) was administered once a week after 4 weeks. The mouse knee joint was processed for histological analysis 10 weeks after surgery. All experiments were independently performed with at least three biological replicates to ensure reproducibility. For in vivo studies, animals were randomly assigned to treatment or control groups. For in vitro experiments, cells were plated using a randomized layout across multi-well plates to avoid positional effects and ensure unbiased treatment assignment
# All histological samples were prepared independently by two researchers. Cartilage destruction was evaluated based on Safranin O staining and scored using the OA Research Association International (OARSI) grading system ([29]). Additionally, all histological samples were analyzed through osteophyte maturity scoring and subchondral bone plate (SBP) thickness. Osteophyte maturity was scored as described previously ([30]). Briefly, the scoring was as follows: 0 = none, 1 = predominantly cartilaginous, 2 = mixed cartilage and bone with active vascular invasion and endochondral ossification, 3 = predominantly bone. SBP thickness was measured to analyze subchondral bone sclerosis. All experiments were independently performed over at least three replicates. […] For each sample, measurements were performed on serial sections, and the mean value was calculated for analysis. The samples were […] by treating with 0.5 M ethylenediamine tetraacetic acid (pH 8.0) for 2 weeks. Next, mouse knee joint samples were fixed using 4% paraformaldehyde and embedded in paraffin. The paraffin-embedded samples were cut into 5-μm sections and fixed on glass slides. The tissue sections were then hydrated using a graded ethanol series, which removed paraffin and xylene. Mouse knee joint sections were immunohistochemically analyzed using anti-Mmp3 (ab52915, Abcam, Cambridge, UK), anti-Mmp13 (ab51072, Abcam), and anti-Cox2 (66351-I-Ig, ProteinTech, Rosemont, ILllinois, USA).
# [8] = oral 50 mg/kg on alternate days from 4 weeks after DMM, 10 weeks after surgery, vs vehicle
# T4 sequence (P25440 344-453 limits assumed): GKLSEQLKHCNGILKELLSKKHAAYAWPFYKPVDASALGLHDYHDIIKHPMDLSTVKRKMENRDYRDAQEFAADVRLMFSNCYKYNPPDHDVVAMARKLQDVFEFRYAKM
# T1 sequence (Q15059 29-417 limits assumed): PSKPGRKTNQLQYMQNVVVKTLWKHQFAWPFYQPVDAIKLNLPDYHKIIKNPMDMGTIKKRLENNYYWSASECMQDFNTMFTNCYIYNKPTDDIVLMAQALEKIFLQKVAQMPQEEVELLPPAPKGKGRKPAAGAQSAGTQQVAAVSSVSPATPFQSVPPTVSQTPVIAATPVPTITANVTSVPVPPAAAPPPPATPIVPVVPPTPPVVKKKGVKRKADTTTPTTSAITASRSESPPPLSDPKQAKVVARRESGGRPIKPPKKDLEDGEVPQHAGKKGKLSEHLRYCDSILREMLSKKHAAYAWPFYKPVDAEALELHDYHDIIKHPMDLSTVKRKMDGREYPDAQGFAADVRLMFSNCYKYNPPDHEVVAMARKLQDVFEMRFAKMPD
# T3 sequence (P25440 74-180 limits assumed): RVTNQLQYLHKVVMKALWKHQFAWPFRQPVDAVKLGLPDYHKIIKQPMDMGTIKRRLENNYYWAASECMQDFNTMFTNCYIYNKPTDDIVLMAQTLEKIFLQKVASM
# T5 sequence (Q15059 34-140 limits assumed): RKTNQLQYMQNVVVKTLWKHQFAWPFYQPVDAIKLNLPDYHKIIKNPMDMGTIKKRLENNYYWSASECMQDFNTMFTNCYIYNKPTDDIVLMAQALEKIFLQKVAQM
smiles,measurement,setting,value
"CNC(=O)CC1C(=O)NCCN1Cc1ccc(-c2ccccc2-c2cccc3c2CN(C)C3=O)o1 (stereo not drawn) [NCD, N-methyl-2-(1-((5-(2-(2-methyl-1-oxoisoindolin-4-yl)phenyl)furan-2-yl)methyl)-3-oxopiperazin-2-yl)acetamide]",TR-FRET value,[1],> 100000 RLU
same,TR-FRET value,[2],> 100000 RLU
same,pKd,[3],7.59
same,pKd,[4],6.98
same,pKd,[5],< 6.00
same,pKd,[6],< 6.00
same,OARSI score,[7]; [8],decrease
same,Osteophyte maturity,[7]; [8],decrease
same,SBP thickness,[7]; [8],decrease
same,"Expression of Mmp3, Mmp13 and Cox2 in articular cartilage (immunohistochemistry)","[7]; oral 50 mg/kg, DMM mice",markedly reduced expression levels
same,NITEGE levels (aggrecan degradation neoepitope),"[7]; oral 50 mg/kg, DMM mice",significantly reduced
same,Type II collagen (immunohistochemistry),"[7]; oral 50 mg/kg, DMM mice",restored
